Results as given in patent publication US20130158070A1, “CONJUGATES OF POLYUNSATURATED FATTY ACIDS AND AMINE-CONTAINING COMPOUNDS AND USES THEREOF” (priority 2010, published 2013).

Legend:
[1] = tested on: TNBS-induced ulcerative colitis; assay: TNBS-induced colitis (ulcerative colitis) in rats; assay type: in vivo
Protocol: Exemplary conjugates were tested for the effect on inflammatory bowel disease IBD (ulcerative colitis) in rats.
Briefly, ulcerative colitis was induced by tri-nitrobenzene sulfunic acid (TNBS) as described in the literature. Rats were divided into 4 groups, (−) sham (healthy), (+) control ulcerative colitis (UC, not treated), UC treated with the tested conjugate (25 mg/kg), and UC treated with 5-amino salicylic acid (5-ASA 25 mg/kg). The tested conjugate and 5-ASA were administered rectally during all the period of the experiment. At the end of the experiment animals were sacrificed and the colon was isolated to test the severity of the inflammation. The severity of the inflammation was tested by measurement of the myeloperoxidase activity (MPO activity) in the inflamed area of the colon.

[2] = tested on: DNBS-induced colitis; assay: DNBS-induced experimental colitis in mice, oral administration; assay type: in vivo; details: day four after DNBS, MWL001 50 mg/kg oral daily
Protocol: In this study, the effect of MWL001 on pro-inflammatory mediators in DNBS-induced experimental colitis in mice was evaluated. In particular it was observed that there was no expression of TNF-α, CD4, TGF-13, CD25 in the colon tissue from sham-treated mice. MWL001 and DEX were administered orally and daily starting at six hours after the DNBS challenge.
Colitis was induced with a very low dose of 2,4-dinitrobenzene sulfonic acid (DNBS) (4 mg per mouse) by using a modification of the method first described in mice. […] Mice were anesthetized by Enflurane. DNBS (4 mg in 100 μl of 50% ethanol) was injected into the rectum through a catheter inserted 4.5 cm proximally to the anus. The carrier alone (100 μl of 50% ethanol) was administered in control experiments. Thereafter, the animals were kept for 15 minutes in a Trendelenburg position to avoid reflux. […] On Day four, the animals were weighed and anaesthetized with chloral hydrate, and their abdomen was opened by a midline incision. The colon was removed, freed from surrounding tissues, opened along the antimesenteric border and processed for histology.
TNF-α and IL-6 levels were evaluated and colon tissues collected at four days after DNBS administration. Briefly, portions of terminal colon were homogenized as previously described in phosphate-buffered saline (PBS, ICN Biomedicals, Milan, Italy) containing two mmol/L of phenyl-methyl sulfonyl fluoride (PMSF, Sigma Chemical Co.). The assay was carried out using a colorimetric, commercial kit (R&D system Milan, Italy) according to the manufacturer instructions. All cytokines determinations were performed in duplicate serial dilutions.
At four days after DNBS administration, colon tissues were fixed in 10% (w/v) PBS-buffered formaldehyde and 7 μm sections were prepared from paraffin embedded tissues. After deparaffinization, endogenous peroxidase was quenched with 0.3% (v/v) hydrogen peroxide in 60% (v/v) methanol for 30 min. The sections were permeabilized with 0.1% (w/v) Triton X-100 in PBS for 20 min. Non-specific adsorption was minimized by incubating the section in 2% (v/v) normal goat serum in PBS for 20 min. Endogenous biotin or avidin binding sites were blocked by sequential incubation for 15 min with biotin and avidin (Vector Laboratories, Burlingame, Calif.), respectively. Sections were incubated overnight with: 1) purified polyclonal antibody directed towards CD4 (Santa Cruz Biotechnology, 1:500 in PBS, v/v) or 2) with purified anti-CD25 (Santa Cruz Biotecnology 1:500 in PBS, w/v) or 3) with anti- TNF-α polyclonal antibody (Santa Cruz Biotechnology, N-19:sc-1350, 1:500 in PBS, v/v) or 4) with anti-TGF-β polyclonal antibody (Santa Cruz, 1:500 in PBS, v/v).
Sections were washed with PBS, and incubated with a secondary antibody. Specific labelling was detected with a biotin-conjugated goat anti-rabbit IgG and avidin-biotin peroxidase complex (Vector Laboratories, Burlingame, Calif.).

## CCC=CCC=CCC=CCC=CCC=CCC=CCCC(=O)N1CC(O)CC1C(=O)O (stereo not drawn) [MWL001]
[1]; UC rats, throughout assay period
  body weight: no decrease
[1]; rectal, 50 mg/kg as printed, compared to 5-ASA, inflamed colon
  MPO activity (severity index): significant decrease
[1]; ulcerated colon segment, compared to non-treated or 5-ASA treated
  colon morphology and inflammation signs (images): normal clear anatomic morphology and a significant decrease in inflammation signs
[2]; colorimetric kit
  IL-6 colon levels: significant reduction
  TNF-α colon levels: significant reduction
[2]; immunostaining
  expression of CD4 in colon tissue: significantly reduced
  expression of CD25 in colon tissue: significantly reduced
  expression of TGF-β in colon tissue: significantly reduced
  expression of TNF-α in colon tissue: significantly reduced
